Results reported in PMC5651866, “Halogenated Chrysins Inhibit Dengue and Zika Virus Infectivity” (Scientific Reports, 2017).

How the values were obtained:
DENV2 = conditions: cell-based assay; cited from earlier work
DENV2 NGC = experiment: Primary screening: compounds added to DENV2 infected LLC/MK2 cells, plaque titration of culture supernatants; type: cell-based, Dengue virus; conditions: for inhibition of virus production: 10 μM and 25 μM, summary of Table 1; for inhibition at 10 µM / inhibition at 25 µM: Dengue virus, DENV2, LLC-MK2, read-out: DENV2 inhibition (%, means ± SEM)
Protocol: In this study, we selected 8 flavonoid derivatives (Fig. 1) and tested their effect on DENV2 NGC in a LLC/MK2 cell-based system. Briefly, the compounds at final concentrations of 10 μM and 25 μM in DMSO were added to DENV2 infected LLC/MK2 cells and the effect on viral particle production was measured by plaque titration of the culture supernatants. […] We also tested cytotoxicity of FV13, FV14, and CH1 to verify the viral inhibition in LLC/MK2 cells (Table 2). The viabilities of FV13 treated cells were 81.00 ± 2.69% and 59.40 ± 2.42%, at 10, and 25 µM respectively, whereas the values for FV14 treated cells were 60.24 ± 3.31% and 60.86 ± 3.57%. We also examined Vero, THP-1, HepG2, and HEK-293 cell viabilities in the presence of selected compounds (Table 2).
LLC/MK2 cells were seeded at 5 × 10^4 cells into each well of 24-well plate and incubated overnight at 37 °C under 5% CO2. Cells were infected with DENV2 at the multiplicity of infection (M.O.I.) of 0.1, unless indicated otherwise, for 1 h with gentle rocking every 15 min. Cells were washed with phosphate buffer saline (PBS) and incubated with 1 ml of MEM medium supplemented with 1% FBS as previously described. The compounds were prepared in dimethylsulfoxide (DMSO) at the indicated concentrations before addition to viral infected cells. Supernatants were collected after 5 day incubation and analyzed by plaque titration. In primary screening, DMSO-treated cells served as the untreated control. Compounds that inhibited virus production by ≥90% were selected for further characterization.

[1] = Cytotoxicity study (CellTiter 96 AQueous One) in LLC/MK2 cells; type: cell-based; conditions: rhesus monkey; for viability at 48 h, 10 µM / viability at 48 h, 25 µM: read-out: Cells viability (%, means ± SEM) LLC/MK2
Protocol: (§1) The cytotoxicity of active compounds was tested on LLC-MK2, Vero, THP-1, HEK-293, HepG2 and C6/36 cell lines. Each cell line was seeded at 1 × 10^4 cells per well in 96-well plates and incubated overnight. The compounds were added at the indicated concentrations and the cells were incubated for 48 h, unless indicated otherwise. Cell viability was analyzed using CellTiter 96® AQueous One Solution Cell Proliferation Assay kit (Promega, Wisconsin-Madison, USA) according to manufacturer’s protocol. The plate was read at the A 450 in a VICTORTM × 3 microplate reader (PerkinElmer, Massachusetts, USA). Percent cell viability in compound-treated wells was calculated using reference DMSO-treated cells as a 100% cell viability control. The CC50 values of LLC/MK2 cells were calculated using nonlinear regression analysis. Results were reported as means and standard error of the means (SEM) of CC50 values of three independent experiments in which each drug concentration was tested in triplicate.

[2] = Cytotoxicity study (CellTiter 96 AQueous One) in Vero cells; type: cell-based; conditions: African green monkey, 48 h, read-out: Cells viability (%, means ± SEM) Vero
Protocol: as §1

Vero cells = experiment: as above; type: cell-based; conditions: 10 and 25 µM; in words
Protocol: as §1

[3] = Cytotoxicity study (CellTiter 96 AQueous One) in THP-1 cells; type: cell-based; conditions: human, read-out: Cells viability (%, means ± SEM) THP-1
Protocol: as §1

[4] = Cytotoxicity study (CellTiter 96 AQueous One) in HepG2 cells; type: cell-based; conditions: human, read-out: Cells viability (%, means ± SEM) HepG2
Protocol: as §1

[5] = Cytotoxicity study (CellTiter 96 AQueous One) in HEK-293 cells; type: cell-based; conditions: human, read-out: Cells viability (%, means ± SEM) HEK-293
Protocol: as §1

[6] = parameters: method as in PMID 27098862, PMID 19397994; conditions: animals and humans; in words; cited from earlier work
LLC/MK2 cells = experiment: Cytotoxicity study (CellTiter 96 AQueous One) in LLC/MK2 cells; type: cell-based; conditions: LLC/MK2 cell viability at 120 h versus 48 h; in words
Protocol: as §1

DENV1 (16007) = experiment: Antiviral efficacy (EC50) in virus infected LLC/MK2 cells, plaque assay; type: cell-based, Dengue virus; conditions: Dengue virus, DENV1, LLC-MK2
Protocol: (§2) Compound at various concentrations were added to virus infected LLC/MK2 cells and viral titers were accessed by plaque titration of supernatants as previously described.
(§3) LLC/MK2 cells were seeded at 5 × 10^4 cells into each well of 24-well plate and incubated overnight at 37 °C under 5% CO2. Cells were infected with DENV2 at the multiplicity of infection (M.O.I.) of 0.1, unless indicated otherwise, for 1 h with gentle rocking every 15 min. Cells were washed with phosphate buffer saline (PBS) and incubated with 1 ml of MEM medium supplemented with 1% FBS as previously described. The compounds were prepared in dimethylsulfoxide (DMSO) at the indicated concentrations before addition to viral infected cells. Supernatants were collected after 5 day incubation and analyzed by plaque titration[9].
(§4) Compounds were prepared in DMSO at 8–12 different concentrations and added to virus infected cells as previously described. Supernatants were collected and the EC50 values were calculated from nonlinear regression analysis.

DENV2 (NGC) = experiment: as above; type: cell-based, Dengue virus
Protocol: as §2, §3, §4

DENV3 (16562) = experiment: as above; type: cell-based, Dengue virus
Protocol: as §2, §3, §4

DENV4 (c0036) = experiment: as above; type: cell-based, Dengue virus
Protocol: as §2, §3, §4

ZIKV (SV0010/15) = experiment: as above; type: cell-based, Zika virus
Protocol: as §2, §3, §4

[7] = Cytotoxicity study, summary statements over human-derived cell lines; type: cell-based; conditions: HepG2 and HEK-293 cells, THP-1, HepG2, HEK-293, 10 and 25 µM, Table 2
Protocol: as §1

[8] = test system: BHK-21/DENV2 replicon cells; experiment: Replicon inhibition assay, RT-qPCR of replicon RNA; type: cell-based; conditions: Dengue virus, DENV2, BHK-21, 72 h, read-out: inhibition of DENV2 replicon replication
Protocol: Next, we studied FV13 inhibition in a DENV2 replicon replication system to investigate whether translation and replication could be implicated as drug targets. BHK-21/DENV2 replicon cells[28] were treated with 5 and 10 µM FV13 and incubated for 72 h before measuring replication efficiency by quantifying replicon RNA. Ribavirin, a known dengue virus replication inhibitor[29], was used as a positive control.
After supernatant collection, the remaining cells in experimental plates were extracted for viral RNAs using TRIzol reagent (Invitrogen, California, USA) according to the manufacturer’s protocol. The samples were loaded into the Direct-zol™ RNA MiniPrep (Zymo research, California, USA) and quantified by Nanodrop spectrophotometry (Eppendorf, New York, USA). The RT-qPCR was performed with a Step-OnePlus Real-Time PCR System (Applied Biosystems, California, USA.) with 1 × Power SYBRGreen PCR Master Mix, 400 nM each of capsid primers[40] or 250 nM of NS1 primers[41] and 0.1 µg of total RNA. The reactions were then cycled at 48 °C 30 min and 95 °C 10 min, followed by 45 cycles of 95 °C for 20 s (denaturation), 55 °C for 30 s (annealing), 72 °C for 30 s (extension). Each sample was analyzed in triplicated and results were confirmed by two independent experiments.
BHK-21 cells expressing a DENV2 replicon (BHK-21/DENV2) were maintained in minimal essential medium (MEM) supplemented with 10% fetal bovine serum (FBS), and 0.3 mg/ml G418 (Bio Basic Canada, Ontario, Canada). The protocol was adapted from Boonyasuppayakorn et al., 2014 [28]. Briefly, cells (5 × 10^4/well) were seeded into 24-well plates and were incubated for 1 day at 37 °C in a humidified CO2 chamber followed by addition of the compounds in 1% DMSO at final concentrations of 5 µM and 10 µM. DMSO (1%) alone was used as the no-inhibitor control (0% inhibition) and the reference compound was ribavirin (TargetMol, Massachusetts, USA) at a final concentration of 5 µM or 10 µM. Cells were incubated at 37 °C for 72 h and lysed to quantify DENV2 replicons by RT-qPCR. Data were reported as percent inhibition compared with ribavirin, as a reference compound and DMSO, 0% inhibition. Results were confirmed by three independent experiments.

O=C(O)[C@H]1O[C@@H](Oc2cc3oc(-c4ccccc4)cc(=O)c3c(O)c2O)[C@H](O)[C@@H](O)[C@@H]1O [Baicalin]
EC50 (DENV2): 30.2 µM

COc1ccc(/C=C/C(=O)c2ccccc2O)cc1 [CH1]
inhibition of virus production (DENV2 NGC): > 99%
inhibition at 10 µM (DENV2 NGC): 99.78 ± 0.08%
inhibition at 25 µM (DENV2 NGC): 99.75 ± 0.15%
viability at 48 h, 10 µM [1]: 61.5 ± 6.43%
viability at 48 h, 25 µM [1]: 59.1 ± 7.42%
viability at 48 h, 10 µM [2]: > 100%
viability at 48 h, 25 µM [2]: 80.4 ± 9.81%
sensitivity of Vero cells to the compound (Vero cells): not
viability at 48 h, 10 µM [3]: 93.1 ± 4.99%
viability at 48 h, 25 µM [3]: 84.8 ± 2.38%
viability at 48 h, 10 µM [4]: 71 ± 1.71%
viability at 48 h, 25 µM [4]: 35.3 ± 1.34%
viability at 48 h, 10 µM [5]: 98.3 ± 2.95%
viability at 48 h, 25 µM [5]: 41.3 ± 0.54%

O=C(/C=C/c1ccc(O)cc1)c1ccccc1O [CH2]
inhibition at 10 µM (DENV2 NGC): 52 ± 8.49%
inhibition at 25 µM (DENV2 NGC): 76 ± 4.24%

COc1cc(O)c2c(c1)OC(c1ccccc1)CC2=O (stereo not shown) [FN2]
inhibition at 10 µM (DENV2 NGC): 62 ± 2.45%
inhibition at 25 µM (DENV2 NGC): 85 ± 3%

O=c1cc(-c2ccccc2)oc2cc(O)cc(O)c12 [FV2, 5,7-dihydroxyflavone]
inhibition at 10 µM (DENV2 NGC): 43 ± 3%
inhibition at 25 µM (DENV2 NGC): 92.8 ± 3.06%
oral bioavailability [6]: poor

COc1cc(O)c2c(=O)c(OC)c(-c3ccccc3)oc2c1 [FV4]
inhibition at 10 µM (DENV2 NGC): 38 ± 6.48%
inhibition at 25 µM (DENV2 NGC): 61 ± 3%

COc1cc(OC)c2c(=O)cc(-c3ccccc3)oc2c1 [FV6]
inhibition at 10 µM (DENV2 NGC): 55 ± 3%
inhibition at 25 µM (DENV2 NGC): 76 ± 7.35%

O=c1cc(-c2ccccc2)oc2c(I)c(O)c(I)c(O)c12 [FV14, 6,8-diiodo-5,7-dihydroxyflavone]
inhibition of virus production (DENV2 NGC): > 99%
inhibition at 10 µM (DENV2 NGC): 99.48 ± 0.43%
inhibition at 25 µM (DENV2 NGC): 99.63 ± 0.03%
viability at 48 h, 10 µM ([1]; LLC/MK2 cells): 60.2 ± 3.31%
viability at 48 h, 25 µM ([1]; LLC/MK2 cells): 60.9 ± 3.57%
CC50 at 48 h ([1]; LLC/MK2 cells, 48 h incubation, read-out: CC50 (cytotoxic concentration)): 42.5 ± 2.53 µM
effect of long term incubation on cytotoxicity (LLC/MK2 cells): significantly greater cytotoxicity at 120 h
viability at 48 h, 10 µM ([2]; Vero cells): 45.4 ± 1.17%
viability at 48 h, 25 µM ([2]; Vero cells): 34.1 ± 2.18%
sensitivity of Vero cells to the compound (Vero cells): very sensitive
viability at 48 h, 10 µM ([3]; THP-1 cells): 86.1 ± 2.76%
viability at 48 h, 25 µM ([3]; THP-1 cells): 93.9 ± 7%
viability at 48 h, 10 µM ([4]; HepG2 cells): 85.6 ± 3.04%
viability at 48 h, 25 µM ([4]; HepG2 cells): 87.01 ± 0.52%
viability at 48 h, 10 µM ([5]; HEK-293 cells): 80.5 ± 3.18%
viability at 48 h, 25 µM ([5]; HEK-293 cells): 48.4 ± 5.76%
EC50 (DENV1 (16007)): 2.3 ± 0.92 µM
S.I. Selectivity index (CC50/EC50) (DENV2 (NGC); DENV2 (NGC), CC50 in LLC/MK2): 20.37
EC50 (DENV2 (NGC); Dengue virus, DENV2, LLC-MK2): 2.19 ± 0.31 µM
S.I. Selectivity index (CC50/EC50) (DENV3 (16562); DENV3 (16562), CC50 in LLC/MK2): 43.64
EC50 (DENV3 (16562); Dengue virus, DENV3, LLC-MK2): 1.02 ± 0.31 µM
S.I. Selectivity index (CC50/EC50) (DENV4 (c0036); DENV4 (c0036), CC50 in LLC/MK2): 34.50
EC50 (DENV4 (c0036); Dengue virus, DENV4, LLC-MK2): 1.29 ± 0.6 µM
S.I. Selectivity index (CC50/EC50) (ZIKV (SV0010/15); CC50 in LLC/MK2): 32.14
EC50 (ZIKV (SV0010/15); Zika virus, LLC/MK2, plaque assay in 24-well plates): 1.39 ± 0.11 µM
viability at 48 h [7]: > 80%

O=C1C[C@@H](c2ccc(O)cc2)Oc2cc(O)cc(O)c21 [Naringenin]
EC50 (DENV2): 18 µM

O=c1cc(-c2ccccc2)oc2cc(O)c(O)c(O)c12 [baicalein]
EC50 (DENV2): 23.9 µM

O=c1c(O)c(-c2ccc(O)c(O)c2)oc2cc(O)ccc12 [fisetin]
EC50 (DENV2): 192 µM

O=c1c(O)c(-c2ccc(O)c(O)c2)oc2cc(O)cc(O)c12 [quercetin]
EC50 (DENV2): 118 µM

NC(=O)c1ncn([C@@H]2O[C@H](CO)[C@@H](O)[C@H]2O)n1 [ribavirin, reference compound]
inhibition at 5 µM [8]: 87.4 ± 10.7%
inhibition at 10 µM [8]: 89.9 ± 4.83%
